This passage reports IC50 results from patent US9914724B2, “C-aryl glycosid derivatives, pharmaceutical composition, preparation process and uses thereof” (SHANGHAI DE NOVO PHARMATECH CO. LTD., priority 2014, dated 2018).

One test concerns the target T1, SGLT-1 (Homo sapiens, UniProt P13866).
T1 sequence (P13866 1-664): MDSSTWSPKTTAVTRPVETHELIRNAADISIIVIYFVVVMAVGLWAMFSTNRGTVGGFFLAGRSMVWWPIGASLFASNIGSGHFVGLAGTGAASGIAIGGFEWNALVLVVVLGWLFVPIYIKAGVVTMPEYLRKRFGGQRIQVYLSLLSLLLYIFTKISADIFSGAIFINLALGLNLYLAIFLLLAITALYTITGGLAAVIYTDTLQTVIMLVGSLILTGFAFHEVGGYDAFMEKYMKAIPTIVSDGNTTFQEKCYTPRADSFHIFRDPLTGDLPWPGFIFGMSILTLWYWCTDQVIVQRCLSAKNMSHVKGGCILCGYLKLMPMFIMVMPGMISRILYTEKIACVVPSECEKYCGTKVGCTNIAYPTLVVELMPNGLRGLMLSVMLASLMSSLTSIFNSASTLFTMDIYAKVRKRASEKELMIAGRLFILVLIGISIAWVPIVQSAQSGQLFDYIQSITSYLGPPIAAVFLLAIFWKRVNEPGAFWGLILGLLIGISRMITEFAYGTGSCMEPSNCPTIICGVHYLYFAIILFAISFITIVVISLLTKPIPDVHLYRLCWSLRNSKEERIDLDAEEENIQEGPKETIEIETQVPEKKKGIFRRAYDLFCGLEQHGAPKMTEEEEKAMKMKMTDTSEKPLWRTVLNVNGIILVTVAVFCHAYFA
Briefly: [14C]-AMG absorption in stable SGLT1 expressing Flp-in CHO cells (SGLT-1 activity screening assay). Format: cell-based. The conditions noted are these: 14C-AMG uptake, 37° C. 1 h, 1% DMSO. The text has this:
(§1) Example 1: [^14C]-AMG Absorption in Stable SGLT1 and SGLT2 Expressing Flp-in CHO Cells (SGLT-1 and SGLT-2 Activity Screening Assay)
(§2) SGLT-1 and SGLT-2 cDNA clones were purchased from OriGene. After sequencing verification, the expression vectors were constructed based on pcDNA5/FRT using conventional molecular biology method. The expression vector was transfected into Flp-in CHO cells using Lipofectamin 2000. The transfected cells were subject hygromycin selection. The single clones of cells were selected by serial dilutions 4-5 weeks after transfection. The expression of SGLT-1 ? SGLT-2 were confirmed by RT-PCR and functional assay and cell line with strong signal was selected for subsequent study.
(§3) Culture of stable SGLT-1 and SGLT-2 expressing Flp-in CHO cell line: the culture media contain F12 medium (Invitrogen), 500 μg/ml hygromycin (Calbiochem) and 10% FBS (Invitrogen). Upon 80% confluency, the cells in the T75 flask were washed three times with PBS (Invitrogen), and 5 mL of Trpsin-EDTA solution (Invitrogen) was then added. The flask was gently rotated so that all the cells were submerged in the digestion solution. After the cells detach, 10 mL of culture medium was added and single cell suspension was prepared by pipetting up and down. The cell concentration was adjusted to 3×10^5/mL, 100 μL/well was added onto clear bottom 96-well plate (Corning).
(§4) The cells were ready for absorption assay once they attached after overnight culture. 12 h after cell plating, the cells were washed once with 150 μL/well absorption solution KRH-NMG (120 mM NMG, 4.7 mM KCl, 1.2 mM MgCl2, 2.2 mM CaCl2, 10 mM HEPES, pH 7.4 1 mM Tris). The solution was then removed from the well. 2.5 μCi/mL ^14C labeled AMG (PerkinElmer) Buffer KRH-Na+ (120 mM NaCl, 4.7 mM KCl, 1.2 mM MgCl2, 2.2 mM CaCl2, 10 mM HEPES, pH 7.4 1 mM Tris) was added at […] after washing with Buffer KRH-Na+ and KRH-NMG. The corresponding compound I was immediately added at 5 μL/well, ensuring the concentration of Dimethyl Sulfoxide was 1% (v/v). The plate was subsequently incubated at 37° C. for 1 h, after which 150 μL of ice cold wash buffer (120 mM NaCl, 4.7 mM KCl, 1.2 mM MgCl2, 2.2 mM CaCl2, 10 mM HEPES, 0.5 mM phlorizin, pH 7.4 1 mM Tris) was immediately added to terminate the reaction. Each well was washed three times with wash buffer and finally the solution was removed. Caution was taken to avoid cell detachment during the procedure. 20 μL/well of Lysis Buffer (0.1 mM NaOH) was added, the plate was vortexed at 900 rpm for 5 min. 80 μL/well of scintillation solution Microsint40 was added, and vortexed at 900 rpm for 5 min. The radioactivity was assayed using MicroBeta Trilux (PerkinElmer). The data was analyzed and IC50 of the compounds was calculated using XL-fit software.

For another test, the target named is T2, SGLT-2 (Homo sapiens, UniProt P31639).
T2 sequence (P31639 1-672): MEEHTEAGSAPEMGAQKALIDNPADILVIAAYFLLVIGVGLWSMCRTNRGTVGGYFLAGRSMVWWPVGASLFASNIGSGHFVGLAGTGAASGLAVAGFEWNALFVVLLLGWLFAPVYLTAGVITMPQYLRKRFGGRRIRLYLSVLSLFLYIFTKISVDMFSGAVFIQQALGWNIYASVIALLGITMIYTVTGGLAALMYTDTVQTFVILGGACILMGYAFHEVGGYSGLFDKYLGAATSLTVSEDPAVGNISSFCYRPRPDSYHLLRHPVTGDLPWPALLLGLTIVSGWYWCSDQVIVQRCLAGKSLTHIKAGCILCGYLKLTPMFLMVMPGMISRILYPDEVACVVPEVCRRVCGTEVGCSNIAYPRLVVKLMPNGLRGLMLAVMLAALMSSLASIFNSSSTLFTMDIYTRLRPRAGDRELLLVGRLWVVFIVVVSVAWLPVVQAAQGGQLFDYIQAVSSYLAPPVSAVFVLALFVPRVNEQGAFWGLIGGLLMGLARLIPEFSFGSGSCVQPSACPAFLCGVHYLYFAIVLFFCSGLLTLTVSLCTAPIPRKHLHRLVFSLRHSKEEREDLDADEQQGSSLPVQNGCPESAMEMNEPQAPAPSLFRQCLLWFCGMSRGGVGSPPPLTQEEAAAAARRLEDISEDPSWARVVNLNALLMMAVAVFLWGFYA
Briefly: [14C]-AMG absorption in stable SGLT2 expressing Flp-in CHO cells (SGLT-2 activity screening assay). The note with it: 14C-AMG uptake, 37° C. 1 h, 1% DMSO. Format: cell-based.
Excerpt: as §1, §2, §3, §4

For `Cc1ccc([C@@H]2O[C@H](CO)[C@@H](O)[C@H](O)[C@H]2O)cc1Cc1ccc(OCC2(C)Cc3ccccc3O2)cc1` (single isomer, unassigned) [Compound I-110], the figures for the IC50 against SGLT-1 and on SGLT-2 were 244 nM and 12.9 nM, respectively.

`Cc1ccc([C@@H]2O[C@H](CO)[C@@H](O)[C@H](O)[C@H]2O)cc1Cc1ccc(OC[C@@H]2Cc3ccccc3O2)cc1` [Compound I-26, (2S,3R,4R,5S,6R)-2-(3-(4-(((S)-2,3-dihydrobenzofuran-2-yl)methoxy)benzyl)-4-methylphenyl)-6-(hydroxymethyl)tetrahydro-2H-pyran-3,4,5-triol]: the half-inhibitory concentration (IC50) (as a rule, the concentration that gives 50% inhibition) stood at 95 nM at SGLT-1 and 2.7 nM against SGLT-2.

With `OC[C@H]1O[C@@H](c2ccc(F)c(Cc3ccc(OCC4Cc5ccccc5O4)cc3)c2)[C@H](O)[C@@H](O)[C@@H]1O` (stereo partly drawn) [Compound I-21, (2S,3R,4R,5S,6R)-2-(3-(4-((2,3-dihydrobenzofuran-2-yl)methoxy)benzyl)-4-fluorophenyl)-6-(hydroxymethyl)tetrahydro-2H-pyran-3,4,5-triol], the results for the IC50 on SGLT-1 and against SGLT-2 were 4300 nM and 13 nM, respectively.

Take `OC[C@H]1O[C@@H](c2ccc(Cl)c(Cc3ccc(OCc4cc5ccc(F)cc5o4)cc3)c2)[C@H](O)[C@@H](O)[C@@H]1O` [Compound I-9, (2S,3R,4R,5S,6R)-2-(4-chloro-3-(4-((6-fluorobenzofuran-2-yl)methoxy)benzyl)phenyl)-6-(hydroxymethyl)tetrahydro-2H-pyran-3,4,5-triol]: the IC50 against SGLT-1 worked out at 151 nM; on SGLT-2 it was 13 nM.

Regarding `COc1ccc([C@@H]2O[C@H](CO)[C@@H](O)[C@H](O)[C@H]2O)cc1Cc1ccc(OCc2cc3ccccc3o2)cc1` [Compound I-5, (2S,3R,4R,5S,6R)-2-(3-(4-(benzofuran-2-ylmethoxy)benzyl)-4-methoxyphenyl)-6-(hydroxymethyl)tetrahydro-2H-pyran-3,4,5-triol], the half-inhibitory concentration (IC50) at SGLT-1 stood at 1510 nM; at SGLT-2 it was 18 nM.

As to `Cc1ccc([C@@H]2O[C@H](CO)[C@@H](O)[C@H](O)[C@H]2O)cc1Cc1ccc(OCC2(C)OCc3ccccc32)cc1` (single isomer, unassigned) [Compound I-113], the 50% inhibitory concentration (IC50) was 655 nM at SGLT-1 and 18.6 nM against SGLT-2.

Consider `Cc1ccc([C@@H]2O[C@H](CO)[C@@H](O)[C@H](O)[C@H]2O)cc1Cc1ccc(OCC2(C)OCc3ccccc32)cc1` (stereo partly drawn) [Compound I-112, (2S,3R,4R,5S,6R)-2-(3-(4-((1-methyl-1,3-dihydroisobenzofuran-1-yl)methoxy)benzyl)-4-methylphenyl)-6-(hydroxymethyl)tetrahydro-2H-pyran-3,4,5-triol], for which the IC50 against SGLT-1 was determined as 179 nM; on SGLT-2, 8 nM.

In the case of `OC[C@H]1O[C@@H](c2cccc(Cc3ccc(OCC4Cc5ccccc5O4)cc3)c2)[C@H](O)[C@@H](O)[C@@H]1O` (stereo partly drawn) [Compound I-30, (2S,3R,4R,5S,6R)-2-(3-(4-((2,3-dihydrobenzofuran-2-yl)methoxy)benzyl)phenyl)-6-(hydroxymethyl)tetrahydro-2H-pyran-3,4,5-triol], the 50% inhibitory concentration (IC50) against SGLT-1 was found to be 9370 nM; against SGLT-2 it was 125 nM.

As for `Cc1ccc([C@@H]2O[C@H](CO)[C@@H](O)[C@H](O)[C@H]2O)cc1Cc1ccc(OCc2cc3ccccc3o2)cc1` [Compound I-3, (2S,3R,4R,5S,6R)-2-(3-(4-(benzofuran-2-ylmethoxy)benzyl)-4-methylphenyl)-6-(hydroxymethyl)tetrahydro-2H-pyran-3,4,5-triol], the IC50 is 320 nM at SGLT-1 and 5.6 nM against SGLT-2.

As to `CC1(COc2ccc(Cc3cc([C@@H]4O[C@H](CO)[C@@H](O)[C@H](O)[C@H]4O)ccc3Cl)cc2)OCc2ccccc21` (single isomer, unassigned) [Compound I-116], the IC50 at SGLT-1 was found to be 1310 nM; against SGLT-2, 3.9 nM.
